Ends that are not written are not given here.
Tests used:
Assay type in all cases: cell-based, Candida albicans (ATCC 90028)
[1] = system: planktonic C. albicans cells; test: Resazurin reduction / viability assay on planktonic C. albicans cells (broth microdilution, CLSI M27-A3); settings: for Antimycrobial Activity against Planktonic C. albicans Cells [%] at 20 µg/mL: in comparison to Pom-1 (= 100%), 20 µg/mL peptide; for inhibition of cell viability: planktonic C. albicans, 2.5 × 10^3 cells per well, 20 µg/mL, 24 h, 37 °C, RPMI-1640, resazurin fluorescence, vs untreated cells, triplicate
Experimental: The viability of treated C. albicans cells with Pom-1A to F was determined according to the Clinical and Laboratory Standards Institute guidelines (M27-A3) for the broth microdilution assay. For this, 2.5 × 10^3 yeast cells were incubated in 200 µL of RPMI-1640 medium (supplemented with L-glutamine) in the presence of various concentrations of Pom-1A to F (2.5–20 µg/mL) in flat-bottomed polystyrene microtiter plates with 96 wells (Sarstedt AG and Co. KG, Nümbrecht, Germany) at 37 °C with shaking at 900 rpm on an Eppendorf shaker. Quantitation of viable yeast cells was performed using a Resazurin-reduction-Assay. For this, yeast cells were incubated with 20 µL of 0.15 mg/mL resazurin solution for 2 h. During this time, the viable cells were able to reduce the resazurin to resorufin. […] For this purpose, a dilution series was prepared for each sample in RPMI 1640 medium and 1 µL was added to Sabouraud agar plates, which were then incubated for 24 h at 37 °C, respectively. To determine the antifungal effect of the peptide derivatives on planktonic C. albicans cells, different concentrations (2.5–20 µg/mL) of the peptides were applied to fixed cell numbers (2.5 × 10^3 cells per well) and were incubated for 24 h in a suspension microtiter plate.

[2] = system: C. albicans planktonic cells; test: Plate spot assay (colony formation after treatment of planktonic cells); settings: after 24 h incubation with peptide (2.5–20 µg/mL), dilutions spotted on Sabouraud agar, further 24 h at 37 °C
Experimental: The viability of treated C. albicans cells with Pom-1A to F was determined according to the Clinical and Laboratory Standards Institute guidelines (M27-A3) for the broth microdilution assay. For this, 2.5 × 10^3 yeast cells were incubated in 200 µL of RPMI-1640 medium (supplemented with L-glutamine) in the presence of various concentrations of Pom-1A to F (2.5–20 µg/mL) in flat-bottomed polystyrene microtiter plates with 96 wells (Sarstedt AG and Co. KG, Nümbrecht, Germany) at 37 °C with shaking at 900 rpm on an Eppendorf shaker. Quantitation of viable yeast cells was performed using a Resazurin-reduction-Assay. For this, yeast cells were incubated with 20 µL of 0.15 mg/mL resazurin solution for 2 h. During this time, the viable cells were able to reduce the resazurin to resorufin. […] The data obtained were subsequently identified in a Hill nonlinear dose-response equation and the semi-inhibitory concentration (IC50) could be determined, at which the cell viability was reduced by 50% compared to the untreated control. In addition, after incubation, 1 µL cell suspension was taken from each well of the microtiter plate to visually confirm the graphical results in a plate spot assay. For this purpose, a dilution series was prepared for each sample in RPMI 1640 medium and 1 µL was added to Sabouraud agar plates, which were then incubated for 24 h at 37 °C, respectively.
For this purpose, 1 µL cell suspension was taken from each well before adding the resazurin solution from the suspension microtiter plate. This sample was then diluted and was added to a Sabourand agar plate, which was then incubated for an additional 24 h for colony formation.

C. albicans biofilm [3] = test: Microscopic analysis of treated C. albicans biofilms; settings: 20 µg/mL, 24 h at 37 °C, transmitted light, compared with untreated and Pom-1 control biofilms
Experimental: C. albicans biofilms were treated with Pom-1, and its derivatives in comparison to an untreated bifilm control (Figure 4B).
Figure 4 Antifungal activity of Pom-1A to F towards C. albicans biofilms. (A) Determined dose-dependent effect of Pom-1 derivatives on biofilm mass by crystal violet assay with fluconazole and Pom-1 as the control agent. All experiments were performed in triplicate and error bars indicate standard deviations. (B) Microscopic analysis using a Leica DMi8 coded (Leica Microsystems CMS GmbH, Wetzlar, Germany) microscope) of untreated C. albicans biofilm and biofilm treated with Pom-1 and its derivatives (20 µg/mL) after 24 h of incubation at 37 °C under transmitted light. TEXT PRINTED IN THE PICTURE: (A) Pom-1A: IC50: 0.9555 | (A) Pom-1B: IC50: 0.008353 | (A) Pom-1C: IC50: 0.08687 | (A) Pom-1D: IC50: 4.930e-032 | (A) Pom-1E: IC50: 2.893 | (A) Pom-1F: IC50: 0.1570 DOUBTS OF THE COPYIST ABOUT THIS PICTURE: Pom-1A, IC50: small print, 0.9555 could be 0.9535 or 0.9556 / Pom-1B, IC50: small print, 0.008353 digits 8/3/5 not certain / Pom-1C, IC50: small print, 0.08687 digits 8/6 not certain / Pom-1D, IC50: small print, 4.930e-032 digits 9/3 not certain / Pom-1E, IC50: small print, 2.893 digits 8/9/3 not certain / Pom-1F, IC50: small print, 0.1570 digit 5 not certain

C. albicans biofilm [4] = system: C. albicans biofilm; parameters: semi inhibitory concentration (IC50) of biofilm formation / IC50 Values against Biofilm Formation: unit not given here; settings: for semi inhibitory concentration (IC50) of biofilm formation / IC50 Values against Biofilm Formation: C. albicans, crystal violet, 24 h, 37 °C, 2.5–20 µg/mL, Hill fit, triplicate; for semi inhibitory concentration (IC50) of biofilm formation: Figure 4A; for IC50 Values against Biofilm Formation: without agitation, Table 1 (rounded); for Antimicrobial Activity against C. albicans Biofilm [%] Based on IC50 Values: in comparison to Pom-1 (= 100%), from IC50 values
Experimental: The analysis of the antifungal effect of the peptides on biofilm followed the same conditions as described previously. In brief, 2.5 × 10^3 yeast cells were incubated in 200 µL RPMI-1640 medium with L-glutamine in flat-bottomed polystyrene microtiter plates with 96 wells (Sarstedt AG and Co. KG, Nümbrecht, Germany) with the respective peptides at different concentrations (2.5–20 µg/mL) for 24 h at 37 °C, but without agitation. The quantification of the biofilm took place due to a crystal violet assay, which was originally developed by George O’ Toole for bacteria and was adapted for Candida biofilms. For this, the planktonic phase in the wells was removed and the biofilms were washed twice with 200 µL of demineralized water. Subsequently, the cells in the biofilm were stained for 15 min with 200 µL of a 0.1% (w/v) crystal violet solution. The solution was then removed again and the stained cells were washed twice with 200 µL of demineralized water. Then, the biofilms in the microtiter plate were dried for 24 h at 25 °C. These were then mixed with 200 µL of 30% acetic acid. After 15 min, the stained solution was transferred to a new microtiter plate and the absorbance at 560 nm was measured using a Tecan infinite F200 microplate reader. The data obtained were then graphically identified using a Hill non-linear dose-response equation and the semi-inhibitory concentration (IC50) was determined, at which 50% of the biofilm was not formed compared to the untreated control.
In order to evaluate the potential of the novel Pom-1A-F peptides, the well established crystal violet assay for microbial cultures in microtiter plates was performed to quantify the biomass formed.

Compound	Antimycrobial Activity against Planktonic C. albicans Cells [%] at 20 µg/mL [1]	colony formation in plate spot assay [2]	biofilm cell density / surface coverage by microscopy (C. albicans biofilm [3])	semi inhibitory concentration (IC50) of biofilm formation (C. albicans biofilm [4])	IC50 Values against Biofilm Formation (C. albicans biofilm [4])	Antimicrobial Activity against C. albicans Biofilm [%] Based on IC50 Values (C. albicans biofilm [4])	inhibition of cell viability [1]
IGSGLFGGAKLIKIKKYIA [Pom-1D]	97%	colony formation decreased with the increase of peptide concentrations					
KCAGSIAWAIGSGLFGGAKLIKIKK [Pom-1E]	153%		slightly higher surface coverage	2.893	2.89	131%	
AGSIAWAIGSGLFGGAKLIKIKKY [Pom-1C]	100%			0.08687	0.08	4750%	
KCAGSIAWAIGSGLFGGAKLIKIKKY [Pom-1B]	160%	colony formation decreased with the increase of peptide concentrations		0.008353	0.008	47500%	up to 70%
IGSGLFGGAKLIKIKKYI [Pom-1A]	133%	colony formation decreased with the increase of peptide concentrations		0.9555	0.95	400%	
AIGSGLFGGAKLIKIKKYI [Pom-1F]	82%		slightly higher surface coverage	0.1570	0.16	2375%	
OC(Cn1cncn1)(Cn1cncn1)c1ccc(F)cc1F [fluconazole, reference compound]							up to 70%
H-KCAGSIAWAIGSGLFGGAKLIKIKKYIAELGGLQ-OH [Pom-1]	100%		significant reduction		3.8	100%	
